The numbers were not newly measured in article PMC3618595 (Pharmaceutical research, 2013), which cites them from elsewhere.

By Km is commonly meant the concentration of substrate that gives half-maximal velocity.

Structures are written as SMILES.

The conditions of data set [1]: cited from earlier work.
The test system of another data set is plasma proteins. The note with it: cited from earlier work.
For the next data set, the target named is T1, hASBT (Homo sapiens, UniProt Q12908).
T1 sequence (Q12908 1-348): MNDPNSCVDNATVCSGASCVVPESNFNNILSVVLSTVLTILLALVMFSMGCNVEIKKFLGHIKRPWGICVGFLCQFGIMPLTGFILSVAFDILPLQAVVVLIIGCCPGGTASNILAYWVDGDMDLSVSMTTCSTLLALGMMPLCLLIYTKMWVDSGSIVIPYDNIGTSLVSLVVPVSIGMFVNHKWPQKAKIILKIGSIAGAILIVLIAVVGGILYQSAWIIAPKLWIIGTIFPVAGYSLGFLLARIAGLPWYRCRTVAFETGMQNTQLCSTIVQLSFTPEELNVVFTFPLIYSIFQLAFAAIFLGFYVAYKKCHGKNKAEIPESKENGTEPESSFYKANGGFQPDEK
The note with it: taurocholate; cited from earlier work.

Regarding `C[C@H](CCC(=O)O)[C@H]1CC[C@H]2[C@@H]3[C@H](O)C[C@@H]4C[C@H](O)CC[C@]4(C)[C@H]3CC[C@]12C` [chenodeoxycholic acid], the Octanol/water partition coefficient in data set [1] was 23.3. Further, the “Binding to plasma proteins” value with plasma proteins is reported as 96.2%. As to `C[C@H](CCC(=O)NCCS(=O)(=O)O)[C@H]1CC[C@H]2[C@@H]3[C@H](O)C[C@@H]4C[C@H](O)CC[C@]4(C)[C@H]3C[C@H](O)[C@]12C` [taurocholate], on hASBT, the Michaelis constant (Km) is 4.39 µM.
